From US6630494B2, “Phenyl-substituted 1,4-dihydropyridines” (Bayer Aktiengesellschaft, priority 1983, dated 2003)
pKi: −log10 of the molar value.

Assays:
[1] = test system: DHP (PN-200 110) binding sites in rats' brain; assay: Binding affinity to DHP (PN 200-110) binding sites in rats' brain; set-up: species or system rat; details: comparison of binding affinities rats' brain vs rats' heart (Ki heart / Ki brain)
Procedure: (§1) The binding affinities to PN 200-110 binding sites in rats' brains or rats' hearts are determined according to Rampe, D. R., Rutledge, A., Janis, R. A., Triggle, D. J.: Can. Journ. Physiol. Pharmacol. 65, (1987) 1452.
(§2) This selectivity exceeds that of the known cerebrally active Ca^2+-antagonistic dihydropyridines nimodipine and nicardipine. This is seen e.g. in the comparison of the binding affinities to DHP (PN-200 110) binding sites in rats' brain and rats' heart [cf. Rampe, D. R., Rutledge, A., Janis, R. A., Triggle, D. J., Can. Journ. Physiol. Pharmacol. 65 (1987), 1452].

[2] = target: T1, DHP (PN-200 110) binding sites in rats' heart (Rattus norvegicus, UniProt P22002); assay: Binding affinity to DHP (PN 200-110) binding sites in rats' heart; details: PN 200-110 (DHP) binding sites
T1 construct: from tissue; host or cells: rat heart
Procedure: as §1, §2

T1 sequence (P22002 whole entry, other chains not shown): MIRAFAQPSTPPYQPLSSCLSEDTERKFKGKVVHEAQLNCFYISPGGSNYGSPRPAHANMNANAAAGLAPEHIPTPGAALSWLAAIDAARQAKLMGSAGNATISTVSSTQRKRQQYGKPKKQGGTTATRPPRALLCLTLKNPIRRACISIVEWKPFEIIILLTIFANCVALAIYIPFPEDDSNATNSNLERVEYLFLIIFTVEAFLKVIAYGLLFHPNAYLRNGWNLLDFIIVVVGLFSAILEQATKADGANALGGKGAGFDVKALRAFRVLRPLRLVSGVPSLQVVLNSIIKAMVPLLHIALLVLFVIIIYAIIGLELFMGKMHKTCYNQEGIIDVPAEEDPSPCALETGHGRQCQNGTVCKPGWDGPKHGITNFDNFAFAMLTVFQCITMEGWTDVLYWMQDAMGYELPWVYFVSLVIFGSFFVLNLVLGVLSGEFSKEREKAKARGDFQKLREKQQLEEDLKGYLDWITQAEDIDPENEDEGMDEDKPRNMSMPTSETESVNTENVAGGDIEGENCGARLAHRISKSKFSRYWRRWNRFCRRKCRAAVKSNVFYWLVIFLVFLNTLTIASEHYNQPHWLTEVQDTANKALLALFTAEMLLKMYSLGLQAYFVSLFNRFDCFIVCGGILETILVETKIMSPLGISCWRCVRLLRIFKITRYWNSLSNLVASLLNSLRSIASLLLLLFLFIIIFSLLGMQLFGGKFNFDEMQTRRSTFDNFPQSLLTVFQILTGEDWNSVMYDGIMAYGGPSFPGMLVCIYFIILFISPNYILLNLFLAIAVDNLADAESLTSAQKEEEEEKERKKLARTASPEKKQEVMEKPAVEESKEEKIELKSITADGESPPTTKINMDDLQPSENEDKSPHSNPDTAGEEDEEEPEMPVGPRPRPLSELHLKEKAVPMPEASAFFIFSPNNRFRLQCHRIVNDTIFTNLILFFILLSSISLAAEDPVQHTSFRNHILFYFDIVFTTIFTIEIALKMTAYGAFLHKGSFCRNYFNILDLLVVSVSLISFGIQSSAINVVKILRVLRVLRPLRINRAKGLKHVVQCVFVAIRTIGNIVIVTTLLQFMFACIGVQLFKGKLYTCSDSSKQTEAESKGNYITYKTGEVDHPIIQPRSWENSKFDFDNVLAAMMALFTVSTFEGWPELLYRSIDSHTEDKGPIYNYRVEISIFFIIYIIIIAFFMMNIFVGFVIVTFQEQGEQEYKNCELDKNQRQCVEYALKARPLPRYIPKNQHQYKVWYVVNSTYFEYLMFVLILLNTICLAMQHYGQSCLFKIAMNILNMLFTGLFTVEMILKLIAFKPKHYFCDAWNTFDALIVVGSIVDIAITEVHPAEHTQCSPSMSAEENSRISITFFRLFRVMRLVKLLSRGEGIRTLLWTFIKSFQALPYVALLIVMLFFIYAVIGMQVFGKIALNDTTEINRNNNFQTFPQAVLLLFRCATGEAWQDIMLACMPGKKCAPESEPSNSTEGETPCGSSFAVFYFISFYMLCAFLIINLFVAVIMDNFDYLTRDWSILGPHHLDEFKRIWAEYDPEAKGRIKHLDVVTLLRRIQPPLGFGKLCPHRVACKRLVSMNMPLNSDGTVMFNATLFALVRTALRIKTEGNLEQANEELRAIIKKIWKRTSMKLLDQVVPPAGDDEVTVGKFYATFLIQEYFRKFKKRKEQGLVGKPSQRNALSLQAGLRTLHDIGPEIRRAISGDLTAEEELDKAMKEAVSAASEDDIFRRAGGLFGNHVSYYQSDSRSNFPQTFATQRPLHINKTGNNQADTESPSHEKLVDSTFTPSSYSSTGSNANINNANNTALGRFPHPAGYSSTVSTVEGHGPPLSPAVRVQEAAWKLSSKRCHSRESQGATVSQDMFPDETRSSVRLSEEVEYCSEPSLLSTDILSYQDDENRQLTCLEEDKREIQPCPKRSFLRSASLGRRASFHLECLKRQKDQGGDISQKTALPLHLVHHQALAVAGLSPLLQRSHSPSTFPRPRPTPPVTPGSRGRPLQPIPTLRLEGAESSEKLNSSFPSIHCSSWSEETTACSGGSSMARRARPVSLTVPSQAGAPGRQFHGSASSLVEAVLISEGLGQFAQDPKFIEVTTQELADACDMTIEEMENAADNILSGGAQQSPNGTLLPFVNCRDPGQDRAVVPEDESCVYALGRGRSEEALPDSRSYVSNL
T1 sequence (P54290 25-944 partner limits assumed, other chains not shown): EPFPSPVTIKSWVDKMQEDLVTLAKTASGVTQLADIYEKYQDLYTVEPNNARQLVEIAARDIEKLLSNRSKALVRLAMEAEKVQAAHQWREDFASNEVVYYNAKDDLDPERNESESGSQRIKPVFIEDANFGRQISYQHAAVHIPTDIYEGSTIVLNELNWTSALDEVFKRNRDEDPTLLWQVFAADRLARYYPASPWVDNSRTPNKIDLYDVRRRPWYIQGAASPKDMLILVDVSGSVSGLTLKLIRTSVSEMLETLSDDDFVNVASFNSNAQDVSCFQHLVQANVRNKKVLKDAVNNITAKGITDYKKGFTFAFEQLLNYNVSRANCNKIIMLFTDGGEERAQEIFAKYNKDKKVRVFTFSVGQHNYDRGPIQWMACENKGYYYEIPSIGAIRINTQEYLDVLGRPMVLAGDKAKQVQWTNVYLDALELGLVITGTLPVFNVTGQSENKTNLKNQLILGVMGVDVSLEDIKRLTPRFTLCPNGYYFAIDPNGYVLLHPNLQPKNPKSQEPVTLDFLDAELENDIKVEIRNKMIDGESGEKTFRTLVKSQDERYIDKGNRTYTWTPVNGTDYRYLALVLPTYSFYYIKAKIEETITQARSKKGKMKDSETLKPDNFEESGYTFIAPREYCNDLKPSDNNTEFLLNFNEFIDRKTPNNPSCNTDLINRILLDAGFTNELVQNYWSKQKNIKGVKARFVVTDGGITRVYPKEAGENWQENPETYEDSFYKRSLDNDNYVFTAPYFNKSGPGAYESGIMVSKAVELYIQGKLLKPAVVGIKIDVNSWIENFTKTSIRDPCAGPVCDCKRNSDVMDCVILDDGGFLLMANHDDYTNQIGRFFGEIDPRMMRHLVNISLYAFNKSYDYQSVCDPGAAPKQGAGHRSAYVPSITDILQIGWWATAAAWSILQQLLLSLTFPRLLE
T1 sequence (P54290 945-1091 partner limits assumed, other chains not shown): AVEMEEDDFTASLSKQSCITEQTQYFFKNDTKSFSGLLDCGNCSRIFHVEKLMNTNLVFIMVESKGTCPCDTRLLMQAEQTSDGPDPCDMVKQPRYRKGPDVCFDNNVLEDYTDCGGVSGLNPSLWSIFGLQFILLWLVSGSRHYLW

Row | melting point [°C] | Selectivity [1] | pKi [2] | SMILES
1 | 57 to 59 |  |  | COCCOC(=O)C1=C(C)NC(C)=C(C(=O)OC(C)C)C1c1c(F)cccc1Cl (racemic) [Example 3, (±) isopropyl 2-methoxyethyl 4-(2-chloro-6-fluorophenyl)-1,4-dihydro-2,6-dimethylpyridine-3,5-dicarboxylate]
2 | 119 to 120 |  |  | COCCOC(=O)C1=C(C)NC(C)=C(C(=O)OC(C)C)C1c1c(F)cccc1F (racemic) [Example 6, (±) isopropyl 2-methoxyethyl 4-(2,6-difluorophenyl)-1,4-dihydro-2,6-dimethylpyridine-3,5-dicarboxylate]
3 | 135 to 136 |  |  | COCCOC(=O)C1=C(C)NC(C)=C(C(=O)OC(C)C)C1c1cccc(F)c1F (racemic) [Example 9, (±) isopropyl 2-methoxyethyl 4-(2,3-difluorophenyl)-1,4-dihydro-2,6-dimethylpyridine-3,5-dicarboxylate]
4 | 79 to 89 | 10 | 7.14 | COCCOC(=O)C1=C(C)NC(C)=C(C(=O)OC(C)C)C1c1cc(Cl)ccc1Cl (racemic) [Example 12, (±) isopropyl 2-methoxyethyl 4-(2,5-dichlorophenyl)-1,4-dihydro-2,6-dimethylpyridine-3,5-dicarboxylate]
5 |  | 5.7 | 7.95 | COCCOC(=O)C1=C(C)NC(C)=C(C(=O)OC(C)C)C1c1cccc(Cl)c1C#N (racemic) [Example 15, (±) isopropyl 2-methoxyethyl 4-(3-chloro-2-cyanophenyl)-1,4-dihydro-2,6-dimethylpyridine-3,5-dicarboxylate]
6 | 78 | 3.4 | 7.55 | COCCOC(=O)C1=C(C)NC(C)=C(C(=O)OC(C)C)C1c1ccc(F)c(F)c1 (racemic) [Example 18]
7 | 140 to 142 |  |  | COCCOC(=O)C1=C(C)NC(C)=C(C(=O)OC(C)C)C1c1cccc(C(F)(F)F)c1F (racemic) [Example 27, (±) isopropyl 2-methoxyethyl 4-(2-fluoro-3-trifluoromethylphenyl)-1,4-dihydro-2,6-dimethylpyridine-3,5-dicarboxylate]
8 | 119 to 120 | 4.7 | 8.10 | COCCOC(=O)C1=C(C)NC(C)=C(C(=O)OC2CCCC2)C1c1cccc(C#N)c1Cl (racemic) [Example 30, (±) cyclopentyl 2-methoxyethyl 4-(2-chloro-3-cyanophenyl)-1,4-dihydro-2,6-dimethylpyridine-3,5-dicarboxylate]
9 | 108 to 109 | 2.2 | 8.10 | COCCOC(=O)C1=C(C)NC(C)=C(C(=O)OC(C)(C)C)C1c1cccc(C#N)c1 (racemic) [Example 33, (±) tert-butyl 2-methoxyethyl 4-(3-cyanophenyl)-1,4-dihydro-2,6-dimethylpyridine-3,5-dicarboxylate]
10 | 105 |  |  | COCCOC(=O)C1=C(C)NC(C)=C(C(=O)OC2CCCC2)C1c1cccc(C(F)(F)F)c1F (racemic) [Example 36, (±) cyclopentyl 2-methoxyethyl 4-(2-fluoro-3-trifluoromethylphenyl)-1,4-dihydro-2,6-dimethylpyridine-3,5-dicarboxylate]
11 | 128 |  |  | COCCOC(=O)C1=C(C)NC(C)=C(C(=O)OC)C1c1cccc(C(F)(F)F)c1F (racemic) [Example 39, (±) 2-methoxyethyl methyl 4-(2-fluoro-3-trifluoromethylphenyl)-1,4-dihydro-2,6-dimethylpyridine-3,5-dicarboxylate]
12 | 128 to 130 |  |  | COCCOC(=O)C1=C(C)NC(C)=C(C(=O)OC2CCCC2)C1c1cccc(Cl)c1C#N (racemic) [Example 46, (±) cyclopentyl 2-methoxyethyl 4-(2-cyano-3-chlorophenyl)-1,4-dihydro-2,6-dimethylpyridine-3,5-dicarboxylate]
13 |  |  | 7.85 | COC(=O)C1=C(C)NC(C)=C(C(=O)OCCN(C)Cc2ccccc2)C1c1cccc([N+](=O)[O-])c1 (centres unmarked) [Nicardipine, nicardipine, reference compound]
14 |  |  | 8.34 | COCCOC(=O)C1=C(C)NC(C)=C(C(=O)OC(C)C)C1c1cccc([N+](=O)[O-])c1 (centres unmarked) [Nimodipine, nimodipine, reference compound]
